Measured values reported in patent US20240384268A1, “Oligonucleotides” (Hudson Institute of Medical Research, priority 2021, published 2024).
In the oligonucleotide strings, read from the 5' end, every base follows the letter of its sugar. An asterisk marks phosphorothioate; unmarked linkages are phosphodiester. Other units and linkages are bracketed, terminal groups are in braces. A string of capitals states the bases alone. d = 2'-deoxy (DNA); m = 2'-O-methyl

The substances below were run against T1, human TLR7 (Homo sapiens, UniProt Q9NYK1) (assay: HEK-TLR7 NF-κB-luciferase reporter, R848 stimulation). Settings: HEK-TLR7; 100 nM ASO; percentage of R848 without ASO (Alharbi et al., 2020).
T1 construct: HA; host or cells: 293XL-hTLR7-HA (HEK293)
T1 sequence (Q9NYK1 27-1049): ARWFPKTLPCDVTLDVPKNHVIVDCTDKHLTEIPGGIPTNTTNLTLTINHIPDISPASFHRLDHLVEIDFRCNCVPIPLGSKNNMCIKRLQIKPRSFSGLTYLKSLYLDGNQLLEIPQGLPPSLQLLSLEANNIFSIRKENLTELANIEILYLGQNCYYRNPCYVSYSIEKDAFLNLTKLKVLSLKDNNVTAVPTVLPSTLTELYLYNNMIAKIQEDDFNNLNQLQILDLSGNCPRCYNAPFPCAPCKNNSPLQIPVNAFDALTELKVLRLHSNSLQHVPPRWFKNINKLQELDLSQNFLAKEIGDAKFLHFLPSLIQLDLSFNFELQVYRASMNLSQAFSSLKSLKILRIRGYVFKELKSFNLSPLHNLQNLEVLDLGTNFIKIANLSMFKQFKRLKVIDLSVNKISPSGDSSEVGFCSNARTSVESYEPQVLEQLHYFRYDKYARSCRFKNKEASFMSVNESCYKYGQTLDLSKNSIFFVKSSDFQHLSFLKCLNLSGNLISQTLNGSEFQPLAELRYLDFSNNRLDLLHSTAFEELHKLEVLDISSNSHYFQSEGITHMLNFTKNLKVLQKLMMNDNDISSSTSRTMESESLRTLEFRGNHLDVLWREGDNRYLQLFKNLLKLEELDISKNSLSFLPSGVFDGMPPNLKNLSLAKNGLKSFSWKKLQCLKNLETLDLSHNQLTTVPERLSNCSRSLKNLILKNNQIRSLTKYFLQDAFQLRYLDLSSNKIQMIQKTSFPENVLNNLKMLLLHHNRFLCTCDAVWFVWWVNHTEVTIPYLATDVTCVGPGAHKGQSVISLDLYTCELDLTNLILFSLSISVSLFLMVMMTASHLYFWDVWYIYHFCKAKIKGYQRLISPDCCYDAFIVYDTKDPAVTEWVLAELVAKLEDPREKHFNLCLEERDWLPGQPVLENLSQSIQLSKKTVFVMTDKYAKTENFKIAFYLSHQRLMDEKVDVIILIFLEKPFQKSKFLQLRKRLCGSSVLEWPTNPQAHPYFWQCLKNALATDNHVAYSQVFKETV
Assay type: cell-based

Substance	TLR7-100 nM: averaged NF-κB-Luciferase relative to R848
mU*mA*mA*mA*mA*T*A*A*G*G*G*G*A*A*T*mA*mG*mG*mG*mG (mU*mA*mA*mA*mA*dT*dA*dA*dG*dG*dG*dG*dA*dA*dT*mA*mG*mG*mG*mG) [[CDKN2B-AS1]80]	40.95%
mU*mC*mC*mC*mA*A*C*T*C*T*T*C*T*A*A*mC*mU*mC*mG*mU (mU*mC*mC*mC*mA*dA*dC*dT*dC*dT*dT*dC*dT*dA*dA*mC*mU*mC*mG*mU; antisense) [[LINC-PINT]1284 KL]	40.79%
mU*mC*mC*mC*mA*T*C*C*C*T*T*C*T*G*C*mU*mG*mA*mC*mA (UCCCATCCCTTCTGCUGACA; sugars from the 5' end m5 d10 m5, all phosphorothioate, methylation of C not given here) [[LINC-PINT]101]	43.08%
mU*mC*mU*mC*mC*A*T*G*T*C*C*C*A*G*G*mC*mC*mU*mC*mC (mU*mC*mU*mC*mC*dA*dT*dG*dT*dC*dC*dC*dA*dG*dG*mC*mC*mU*mC*mC; antisense) [[CDKN2B-AS1]2230]	43.45%
mU*mC*mU*mC*mU*C*T*G*G*T*C*C*C*A*T*mC*mC*mC*mU*mU (mU*mC*mU*mC*mU*dC*dT*dG*dG*dT*dC*dC*dC*dA*dT*mC*mC*mC*mU*mU; antisense) [[LINC-PINT]110]	43.82%
mU*mC*mU*mC*mU*G*G*T*C*C*C*A*T*C*C*mC*mU*mU*mC*mU (UCUCUGGTCCCATCCCUUCU; antisense; sugars from the 5' end m5 d10 m5, all phosphorothioate, methylation of C not given here) [[LINC-PINT]108]	78.25%
mU*mC*mU*mG*mG*T*C*C*C*A*T*C*C*C*T*mU*mC*mU*mG*mC (UCUGGTCCCATCCCTUCUGC; antisense; sugars from the 5' end m5 d10 m5, all phosphorothioate, methylation of C not given here) [[LINC-PINT]106]	29.42%
mU*mG*mA*mC*mA*A*A*A*C*A*A*T*A*A*T*mA*mA*mC*mA*mG (mU*mG*mA*mC*mA*dA*dA*dA*dC*dA*dA*dT*dA*dA*dT*mA*mA*mC*mA*mG) [[LINC-PINT]384]	36.68%
mU*mG*mA*mC*mA*T*T*T*C*G*T*G*G*C*T*mC*mC*mU*mA*mC (mU*mG*mA*mC*mA*dT*dT*dT*dC*dG*dT*dG*dG*dC*dT*mC*mC*mU*mA*mC; antisense) [[LINC-PINT]523 KL]	33.56%
mU*mG*mA*mU*mG*A*T*G*C*T*T*G*C*A*G*mG*mA*mG*mG*mC (mU*mG*mA*mU*mG*dA*dT*dG*dC*dT*dT*dG*dC*dA*dG*mG*mA*mG*mG*mC) [[LINC-PINT|283.1]	25.50%
mU*mG*mG*mC*mG*T*A*G*T*T*T*C*T*C*T*mU*mC*mC*mU*mC (mU*mG*mG*mC*mG*dT*dA*dG*dT*dT*dT*dC*dT*dC*dT*mU*mC*mC*mU*mC; antisense) [[LINC-PINT]937.1]	32.81%
mU*mG*mU*mG*mA*A*A*A*G*A*T*T*A*T*C*mU*mU*mC*mU*mU (UGUGAAAAGATTATCUUCUU; sugars from the 5' end m5 d10 m5, all phosphorothioate, methylation of C not given here) [[CDKN2B-AS1]2137]	34.51%
mU*mG*mU*mU*mU*C*C*C*C*G*G*A*G*A*G*mC*mA*mA*mU*mG (UGUUUCCCCGGAGAGCAAUG; antisense; sugars from the 5' end m5 d10 m5, all phosphorothioate, methylation of C not given here) [[LINC-PINT]501 KL]	30.90%
